From patent publication US20060292243A1, “Arsenic compounds for the treatment of the arsenic-sensitive blast-cell related diseases” (priority 2005, published 2006)
Where two headings read alike, the source gives them in different places.

How the values were obtained:
[1] = test system: FCC1/NH strain of P. falciparum; test: Malaria inhibition test; format: cell-based
Procedure: FCC1/NH strain (from Hainan, P.R.C.) of P. falciparum was used. The strain of the parasite was cultured by culture media mainly composed of RPMI-1640(GBCO), HEPES (GBCO), NaHCO3, and AB type serum. In a given experiment, Petri dish cultures were diluted with culture medium containing an amount of noninfected type B human erythrocytes to obtain a culture with a final parasitemia of about 1%. The resulting culture was ready for addition to microtitration plates with 96 flat-bottom wells.
The final volume added to each of the 96-well microtitration plates was 200 μl, consisted of 20 μl of complete medium with or without the drug (arsenic trioxide) and 180 μl of the parasitized culture. The microtitration plates were incubated in 5% CO2 for an additional 48 hr, at 37 C. The suspensions were discarded and infection rate of RBC in each well was calculated by microscope examination after Giemsa staining. When drugs interfere, an inhibitory dose of 50% (IC50) and 90% (IC90) can be calculated. A series of experiments is shown below.
The malaria inhibition experiment was performed in 4 lanes for each arsenic trioxide dose, and the initial infectious rate is 1.8%. After 48 hours of incubation, 5000 RBCs in each well were checked by microscope.
Another malaria inhibition experiment was performed in 4 lanes for each arsenic trioxide dose, and the initial infectious rate is 1.5%. After 48 hours of incubation, 5000 RBCs in each well were checked by microscope.
The other malaria inhibition experiment was performed in 12 lanes for each arsenic trioxide dose, and the initial infectious rate is 1.1%. After 48 hours of incubation, 5000 RBCs in each well were checked by microscope.
The other malaria inhibition experiment was performed in 6 lanes for each arsenic trioxide dose, and the initial infectious rate is 1.1%. After 48 hours of incubation, 5000 RBCs in each well were checked by microscope.

[2] = test system: cultured human fibroblasts; test: Cell cycle effect on cultured human fibroblasts (MTT, flowcytometry, western blot, promoter luciferase); format: cell-based; conditions: 1 to 10 μM, 24 hr
From the text: Arsenic trioxide has been approved for APL (acute promyelocytic leukemia) therapy, and though much work remains to be done on the application of arsenic trioxide and the mechanism of arsenic toxicity is not fully understood, several recent works pointed out the involvement of oxidative stress in arsenic-induced DNA damage in living cells may cause cell cycle arrest.

Fibroblasts = test: DAPI staining of apoptotic bodies in fibroblasts; format: cell-based, human; conditions: 24 hours
Procedure: Fibroblasts were treated with different concentrations of ATO for 24 hours, cells were fixed and the apoptotic bodies were detected by DAPI staining.

[3] = test system: PBMCs (peripheral blood mononuclear cells); test: PI staining, cell death within all PBMCs by flowcytometry; format: cell-based
From the text: Arsenic trioxide (Asadin®) induces differentiation and apoptosis of malignant cells in vitro and in vivo and has been used in the treatment of a variety of hematological malignancies, the main goal of this example is to try to identify the apoptotic effect of arsenic trioxide on various PBMCs (peripheral blood mononuclear cells), and the methodologies used in this invention include:
1. The isolation procedure using Ficoll Plaque for exploiting the different densities of RBCs and PBMCs to separate them.
2. The detection of apoptosis by PI staining through flowcytometry.
In the PI-based study, under different concentrations of arsenic trioxide (0, 0.5, 2.5, 5, or 10 μM), the percentages of cell death (within all PBMCs) in 24 hr and 48 hr were calculated respectively in Table 1.1.

[4] = 0.031 uM, exp. 5.2.2, initial infectious rate 1.5%, 4 lanes, 48 hours
[5] = 0.063 uM, exp. 5.2.2, initial infectious rate 1.5%, 4 lanes, 48 hours
[6] = 0.125 uM, exp. 5.2.2, initial infectious rate 1.5%, 4 lanes, 48 hours
[7] = 0.25 uM, exp. 5.2.1, initial infectious rate 1.8%, 4 lanes, 48 hours
[8] = 0.25 uM, exp. 5.2.2, initial infectious rate 1.5%, 4 lanes, 48 hours
[9] = 0.5 uM, exp. 5.2.1, initial infectious rate 1.8%, 4 lanes, 48 hours
[10] = 0.5 uM, exp. 5.2.2, initial infectious rate 1.5%, 4 lanes, 48 hours
[11] = 0.5 uM, exp. 5.2.3, initial infectious rate 1.1%, 12 lanes, 48 hours
[12] = 0.5 uM, exp. 5.2.4, initial infectious rate 1.1%, 6 lanes, 48 hours
[13] = 1.0 uM, exp. 5.2.1, initial infectious rate 1.8%, 4 lanes, 48 hours
[14] = 1.0 uM, exp. 5.2.2, initial infectious rate 1.5%, 4 lanes, 48 hours
[15] = 1.0 uM, exp. 5.2.3, initial infectious rate 1.1%, 12 lanes, 48 hours
[16] = 1.0 uM, exp. 5.2.4, initial infectious rate 1.1%, 6 lanes, 48 hours
[17] = 2.0 uM, exp. 5.2.1, initial infectious rate 1.8%, 4 lanes, 48 hours
[18] = 2.0 uM, exp. 5.2.2, initial infectious rate 1.5%, 4 lanes, 48 hours
[19] = 2.0 uM, exp. 5.2.3, initial infectious rate 1.1%, 12 lanes, 48 hours
[20] = 2.0 uM, exp. 5.2.4, initial infectious rate 1.1%, 6 lanes, 48 hours
[21] = 4.0 uM, exp. 5.2.1, initial infectious rate 1.8%, 4 lanes, 48 hours
[22] = 4.0 uM, exp. 5.2.2, initial infectious rate 1.5%, 4 lanes, 48 hours
[23] = 4.0 uM, exp. 5.2.3, initial infectious rate 1.1%, 12 lanes, 48 hours
[24] = 4.0 uM, exp. 5.2.4, initial infectious rate 1.1%, 6 lanes, 48 hours
[25] = 8.0 uM, exp. 5.2.1, initial infectious rate 1.8%, 4 lanes, 48 hours
[26] = 8.0 uM, exp. 5.2.2, initial infectious rate 1.5%, 4 lanes, 48 hours
[27] = 8.0 uM, exp. 5.2.3, initial infectious rate 1.1%, 12 lanes, 48 hours
[28] = 8.0 uM, exp. 5.2.4, initial infectious rate 1.1%, 6 lanes, 48 hours

Substance: arsenic trioxide
- Probability unit (Y) ([1]; 0.031 uM, exp. 5.2.2): 4.1619
- Infection rate (%) [1, 4]: 79.9%
- Inhibition rate (%) [1, 4]: 20.1%
- Probability unit (Y) ([1]; 0.063 uM, exp. 5.2.2): 4.3659
- Infection rate (%) [1, 5]: 73.7%
- Inhibition rate (%) [1, 5]: 26.3%
- Probability unit (Y) ([1]; 0.125 uM, exp. 5.2.2): 4.5239
- Infection rate (%) [1, 6]: 68.3%
- Inhibition rate (%) [1, 6]: 31.7%
- Probability unit (Y) ([1]; 0.25 uM, exp. 5.2.1): 5.1942
- Infection rate (%) [1, 7]: 42.3%
- Inhibition rate (%) [1, 7]: 57.7%
- Probability unit (Y) ([1]; 0.25 uM, exp. 5.2.2): 4.8743
- Infection rate (%) [1, 8]: 54.9%
- Inhibition rate (%) [1, 8]: 45.1%
- Probability unit (Y) ([1]; 0.5 uM, exp. 5.2.1): 5.6903
- Infection rate (%) [1, 9]: 24.5%
- Inhibition rate (%) [1, 9]: 75.5%
- Probability unit (Y) ([1]; 0.5 uM, exp. 5.2.2): 5.1408
- Infection rate (%) [1, 10]: 44.4%
- Inhibition rate (%) [1, 10]: 55.6%
- Probability unit (Y) ([1]; 0.5 uM, exp. 5.2.3): 5.6008
- Infection rate (%) [1, 11]: 27.4%
- Inhibition rate (%) [1, 11]: 72.6%
- Probability unit (Y) ([1]; 0.5 uM, exp. 5.2.4): 5.6903
- Infection rate (%) [1, 12]: 24.5%
- Inhibition rate (%) [1, 12]: 75.5%
- Probability unit (Y) ([1]; 1.0 uM, exp. 5.2.1): 5.8596
- Infection rate (%) [1, 13]: 19.5%
- Inhibition rate (%) [1, 13]: 80.5%
- Probability unit (Y) ([1]; 1.0 uM, exp. 5.2.2): 5.9192
- Infection rate (%) [1, 14]: 17.9%
- Inhibition rate (%) [1, 14]: 82.1%
- Probability unit (Y) ([1]; 1.0 uM, exp. 5.2.3): 5.1311
- Infection rate (%) [1, 15]: 12.9%
- Inhibition rate (%) [1, 15]: 87.1%
- Probability unit (Y) ([1]; 1.0 uM, exp. 5.2.4): 6.0027
- Infection rate (%) [1, 16]: 15.7%
- Inhibition rate (%) [1, 16]: 84.3%
- Probability unit (Y) ([1]; 2.0 uM, exp. 5.2.1): 6.0939
- Infection rate (%) [1, 17]: 13.7%
- Inhibition rate (%) [1, 17]: 86.3%
- Probability unit (Y) ([1]; 2.0 uM, exp. 5.2.2): 6.1311
- Infection rate (%) [1, 18]: 12.9%
- Inhibition rate (%) [1, 18]: 87.1%
- Probability unit (Y) ([1]; 2.0 uM, exp. 5.2.3): 6.3722
- Infection rate (%) [1, 19]: 8.5%
- Inhibition rate (%) [1, 19]: 91.5%
- Probability unit (Y) ([1]; 2.0 uM, exp. 5.2.4): 6.3408
- Infection rate (%) [1, 20]: 9.0%
- Inhibition rate (%) [1, 20]: 91.0%
- Probability unit (Y) ([1]; 4.0 uM, exp. 5.2.1): 6.3225
- Infection rate (%) [1, 21]: 9.3%
- Inhibition rate (%) [1, 21]: 90.7%
- Probability unit (Y) ([1]; 4.0 uM, exp. 5.2.2): 6.2160
- Infection rate (%) [1, 22]: 11.2%
- Inhibition rate (%) [1, 22]: 88.8%
- Probability unit (Y) ([1]; 4.0 uM, exp. 5.2.3): 6.7866
- Infection rate (%) [1, 23]: 3.6%
- Inhibition rate (%) [1, 23]: 96.3%
- Probability unit (Y) ([1]; 4.0 uM, exp. 5.2.4): 6.7507
- Infection rate (%) [1, 24]: 4.0%
- Inhibition rate (%) [1, 24]: 96.0%
- Probability unit (Y) ([1]; 8.0 uM, exp. 5.2.1): 6.4909
- Infection rate (%) [1, 25]: 6.8%
- Inhibition rate (%) [1, 25]: 93.2%
- Probability unit (Y) ([1]; 8.0 uM, exp. 5.2.2): 6.6352
- Infection rate (%) [1, 26]: 5.1%
- Inhibition rate (%) [1, 26]: 94.9%
- Probability unit (Y) ([1]; 8.0 uM, exp. 5.2.3): 7.0537
- Infection rate (%) [1, 27]: 2.0%
- Inhibition rate (%) [1, 27]: 98.0%
- Probability unit (Y) ([1]; 8.0 uM, exp. 5.2.4): 7.0749
- Infection rate (%) [1, 28]: 1.9%
- Inhibition rate (%) [1, 28]: 98.1%
- IC50 ([1]; exp. 5.2.1, initial infectious rate 1.8%, 48 hours, read-out: IC50): 100 nM
- IC90 ([1]; exp. 5.2.1, initial infectious rate 1.8%, 48 hours, read-out: IC90): 3680 nM
- IC50 ([1]; exp. 5.2.1, 95% confidence limit 11.43˜34.2 ng/ml): 0.01978 µg/mL
- IC90 ([1]; exp. 5.2.1, 95% confidence limit 420.84˜1259.53 ng/ml): 0.72805 µg/mL
- IC50 ([1]; exp. 5.2.2, initial infectious rate 1.5%, 48 hours, read-out: IC50): 250 nM
- IC90 ([1]; exp. 5.2.2, initial infectious rate 1.5%, 48 hours, read-out: IC90): 3730 nM
- IC50 ([1]; exp. 5.2.2, 95% confidence limit 28.00˜86.73 ng/ml): 0.04928 µg/mL
- IC90 ([1]; exp. 5.2.2, 95% confidence limit 419.28˜1298.77 ng/ml): 0.73794 µg/mL
- IC50 ([1]; exp. 5.2.3, initial infectious rate 1.1%, 12 lanes, 48 hours, read-out: IC50): 130 nM
- IC90 ([1]; exp. 5.2.3, initial infectious rate 1.1%, 12 lanes, 48 hours, read-out: IC90): 960 nM
- IC50 ([1]; exp. 5.2.3, 95% confidence limit 18.91˜34.9 ng/ml): 0.02572 µg/mL
- IC90 ([1]; exp. 5.2.3, 95% confidence limit 139.65˜258.3 ng/ml): 0.18993 µg/mL
- IC90 ([1]; exp. 5.2.4, initial infectious rate 1.1%, 6 lanes, 48 hours, read-out: IC90): 2090 nM
- IC50 ([1]; exp. 5.2.4, 95% confidence limit 40.32˜99.4 ng/ml): 0.06331 µg/mL
- IC90 ([1]; exp. 5.2.4, 95% confidence limit printed 263.06˜258.30 ng/ml): 0.41348 µg/mL
- effect on cell cycle of fibroblasts [2]: cell cycle arrest especially in G2/M
- apoptotic bodies by DAPI staining (Fibroblasts; 1 μM): no obvious apoptosis
- apoptotic bodies by DAPI staining (Fibroblasts; 2.5 μM): no obvious apoptosis
- apoptotic bodies by DAPI staining (Fibroblasts; 5 μM): obvious apoptotic bodies present
- apoptotic bodies by DAPI staining (Fibroblasts; 10 μM): both apoptosis and necrosis
- 24 hr % cell death ([3]; 0.5 μM): 7.3 ± 1.2%
- 48 hr % cell death ([3]; 0.5 μM): 7.6 ± 0.6%
- 24 hr % cell death ([3]; 2.5 μM): 13.7 ± 1.6%
- 48 hr % cell death ([3]; 2.5 μM): 15.2 ± 2.3%
- 24 hr % cell death ([3]; 5.0 μM): 14.6 ± 2.1%
- 48 hr % cell death ([3]; 5.0 μM): 17.2 ± 1.9%
- 24 hr % cell death ([3]; 10 μM): 17.8 ± 1.8%
- 48 hr % cell death ([3]; 10 μM): 20.3 ± 2.6%
